# Assay results from patent EP4810040A2, “INHIBITORS OF APOL1 AND METHODS OF USING SAME” (priority 2020, dated 2022).
# Target: T1, APOL1 G1 (Homo sapiens, UniProt O14791, I384M/S342G)
# T1 sequence (O14791 28-398 S342G/I384M): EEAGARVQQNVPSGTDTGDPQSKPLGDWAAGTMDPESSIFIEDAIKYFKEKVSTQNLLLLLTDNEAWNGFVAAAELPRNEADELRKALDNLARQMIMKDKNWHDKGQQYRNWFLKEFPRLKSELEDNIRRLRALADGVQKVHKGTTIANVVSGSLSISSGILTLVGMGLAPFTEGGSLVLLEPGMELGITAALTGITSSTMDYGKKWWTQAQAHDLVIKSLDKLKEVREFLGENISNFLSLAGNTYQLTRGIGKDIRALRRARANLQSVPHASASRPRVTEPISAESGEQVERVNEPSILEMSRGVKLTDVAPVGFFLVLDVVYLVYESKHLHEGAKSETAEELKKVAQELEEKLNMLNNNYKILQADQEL
# Experiment: MultiTox-Fluor Multiplex Cytotoxicity Assay, tet-inducible APOL1 G1 T-REx-HEK293 cells
# Assay type: cell-based
# Parameters: expressed in transfected cells; host or cells: T-REx HEK293, clone G1 DC3.25 (pAAVS1-Puro-APOL1 G1)
# Details: for IC90: HEK293, Multi-Tox Assay, APOL1 variant (G0/G1/G2) of the HEK293 cells not given, read-out: Multi-Tox Assay IC90; for Multi-Tox Assay Max Activity (%): APOL1 variant not given
# Method: The MultiTox-Fluor Multiplex Cytotoxicity Assay is a single-reagent-addition, homogeneous, fluorescence assay that measures the number of live and dead cells simultaneously in culture wells. The assay measures cell viability and cytotoxicity by detecting two distinct protease activities. The live-cell protease activity is restricted to intact viable cells and is measured using a fluorogenic, cell-permeant peptide glycyl-phenylalanylamino fluorocoumarin (GF-AFC) substrate. The substrate enters intact cells, where it is cleaved to generate a fluorescent signal proportional to the number of living cells. […] A second, cell-impermeant, fluorogenic peptide substrate (bis-AAF-R110 Substrate) is used to measure dead-cell protease that has been released from cells that have lost membrane integrity. A ratio of dead to live cells is used to normalize data.
# Briefly, the tet-inducible transgenic APOL1 T-REx-HEK293 cell lines were incubated with 50 ng/mL tet to induce APOL1 in the presence of 3-(2-(4-fluorophenyl)-1H-indol-3-yl)-N-((3S,4R)-4-hydroxy-2-oxopyrrolidin-3-yl)propenamide at […], 0.0045, 0.0015, 0.0005 µM in duplicate for 24 hours in a humidified 37°C incubator. The MultiTox reagent was added to each well and placed back in the incubator for an additional 30 minutes. The plate was read on the EnVision plate reader. A ratio of dead to live cells was used to normalize, and data was imported, analyzed and fit using Genedata Screener (Basel, Switzerland) software. Data was normalized using percent of control, no tet (100% viability), and 50 ng/mL tet treated (0% viability),and fit using Smart Fit. The reagents, methods, and complete protocol for the MultiTox assay are described below. Table 42. Reagents Used in the Multi-Tox Assay
# Human embryonic kidney (HEK293) cell lines containing a tet-inducible expression system (T-REx™; Invitrogen, Carlsbad, CA) and Adeno-associated virus site 1 pAA VS1-Puro-APOL1 G0 or pAAVS1-Puro-APOL1 G1 or pAAVS1-Puro-APOL1 G2 Clones G0 DC2.13, G1 DC3.25, and G2 DC4.44 were grown in a T-225 flask at ~90% confluency in cell growth media (DMEM, 10% Tet-free FBS, 2 mM L-glutamine, 100 Units/mL penicillin-streptomycin, 5 µg/mL blasticidin S HCl, 1 µg/mL puromycin dihydrochloride). Cells were washed with DPBS and then trypsinized to dissociate from the flask. Media was used to quench the trypsin, cells were then pelleted at 200g and resuspended in fresh cell assay media (DMEM, 2% Tet-free FBS, 2 mM L-glutamine, 100 Units/mL penicillin-streptomycin). Cells were counted and diluted to 1.17 x 10^6 cells/mL. 20 µL of cells (23,400/well) were dispensed to every well of a 384-well Poly-D-Lysine coated plate using the Multidrop dispenser. The plates were then incubated at room temperature for one hour.
# Tetracycline is needed to induce APOL1 expression. 1 mg/mL tet stock in water was diluted to 250 ng/mL (5X) in cell assay media. 60 µL of cell assay media (no tet control) was dispensed in columns 1 and 24, and 60 µL of 5X tet was dispensed in 384-PP-round bottom plate in columns 2 to 23 with the Multidrop dispenser.
# Assay ready plates from the Global Compound Archive were ordered using template 384_APOL1Cell_DR10n2_50uM_v3. Compounds were dispensed at 200 nL in DMSO. The final top concentration was 10 µM with a 10 point 3-fold dilution in duplicate in the MultiTox assay.
# 20 µL were transferred from the 5X tet plate to the ARP and mixed, then 5 µL of 5X tet and the compounds were transferred to the cell plate and mixed using the Bravo. The cell plate was placed in the humidified 37°C 5% CO2 incubator for 24 hours.
# The MultiTox-Fluor Multiplex Cytotoxicity Assay was performed in accordance with the manufacturer's protocol. […]
smiles,measurement,value
C[C@H]1C[C@@]2(C[C@@H](c3cnn4ccccc34)N1)OCCc1cc(Cl)sc12 (racemic) [Compound 117],IC90,50 to 500 nM
C[C@H]1C[C@@]2(C[C@@H](c3ccn(C)n3)N1)OCCc1cc(Cl)sc12 (racemic) [Compound 118],IC90,50 to 500 nM
same,Multi-Tox Assay Max Activity (%),99.3%
C[C@H]1C[C@@]2(C[C@@H](c3cc(C4CC4)n[nH]3)N1)OCCc1cc(Cl)sc12 (racemic) [Compound 120],IC90,50 to 500 nM
C[C@H]1C[C@@]2(C[C@@H](c3ccc[nH]c3=O)N1)OCCc1cc(Cl)sc12 (racemic) [Compound 121],IC90,50 to 500 nM
C[C@H]1C[C@@]2(C[C@@H](c3ccc(C(F)(F)F)nc3)N1)OCCc1cc(Cl)sc12 (racemic) [Compound 123],IC90,50 to 500 nM
same,Multi-Tox Assay Max Activity (%),100.0%
C[C@H]1C[C@@]2(C[C@@H](c3cn(C)c(=O)n(C)c3=O)N1)OCCc1cc(Cl)sc12 (racemic) [Compound 124],IC90,50 to 500 nM
same,Multi-Tox Assay Max Activity (%),99.3%
Cc1cc(O)ncc1[C@@H]1C[C@]2(C[C@H](C)N1)OCCc1cc(Cl)sc12 (racemic) [Compound 125],IC90,50 to 500 nM
same,Multi-Tox Assay Max Activity (%),99.7%
Cc1cccc([C@@H]2C[C@]3(C[C@H](C)N2)OCCc2cc(Cl)sc23)n1 (racemic) [Compound 126],IC90,50 to 500 nM
same,Multi-Tox Assay Max Activity (%),99.4%
C[C@H]1C[C@@]2(C[C@@H](c3ccnc(N(C)C)n3)N1)OCCc1cc(Cl)sc12 (racemic) [Compound 127],IC90,50 to 500 nM
same,Multi-Tox Assay Max Activity (%),99.3%
CCc1nc([C@@H]2C[C@]3(C[C@H](C)N2)OCCc2cc(Cl)sc23)c[nH]1 (racemic) [Compound 128],IC90,50 to 500 nM
same,Multi-Tox Assay Max Activity (%),99.3%
C[C@H]1C[C@@]2(C[C@@H](c3cnc(N4CCN(C)CC4)nc3)N1)OCCc1cc(Cl)sc12 (racemic) [Compound 129],IC90,50 to 500 nM
same,Multi-Tox Assay Max Activity (%),100.0%
C[C@H]1C[C@@]2(C[C@@H](c3c[nH]c(C4CC4)n3)N1)OCCc1cc(Cl)sc12 (racemic) [Compound 130],IC90,50 to 500 nM
C[C@H]1C[C@@]2(C[C@@H](c3cc4n(n3)CCCO4)N1)OCCc1cc(Cl)sc12 (racemic) [Compound 131],IC90,50 to 500 nM
same,Multi-Tox Assay Max Activity (%),99.3%
Cc1nocc1[C@@H]1C[C@]2(C[C@H](C)N1)OCCc1cc(Cl)sc12 (racemic) [Compound 132],IC90,50 to 500 nM
same,Multi-Tox Assay Max Activity (%),99.3%
C[C@H]1C[C@@]2(C[C@@H](c3cn(CC(N)=O)nn3)N1)OCCc1cc(Cl)sc12 (racemic) [Compound 133],IC90,50 to 500 nM
same,Multi-Tox Assay Max Activity (%),99.7%
Cc1cnc([C@@H]2C[C@]3(C[C@H](C)N2)OCCc2cc(Cl)sc23)o1 (racemic) [Compound 134],IC90,50 to 500 nM
same,Multi-Tox Assay Max Activity (%),99.2%
Cc1c([C@@H]2C[C@]3(C[C@H](C)N2)OCCc2cc(Cl)sc23)cnn1C (racemic) [Compound 136],IC90,50 to 500 nM
same,Multi-Tox Assay Max Activity (%),98.7%
COc1cc(O)cc([C@@H]2C[C@]3(C[C@H](C)N2)OCCc2cc(Cl)sc23)c1 (racemic) [Compound 137],IC90,50 to 500 nM
same,Multi-Tox Assay Max Activity (%),98.7%
Cc1cc([C@@H]2C[C@]3(C[C@H](C)N2)OCCc2cc(Cl)sc23)nc(N(C)C)n1 (racemic) [Compound 138],IC90,50 to 500 nM
same,Multi-Tox Assay Max Activity (%),98.0%
Cc1ccnc([C@@H]2C[C@]3(C[C@H](C)N2)OCCc2cc(Cl)sc23)c1 (racemic) [Compound 139],IC90,50 to 500 nM
same,Multi-Tox Assay Max Activity (%),98.0%
C[C@H]1C[C@@]2(C[C@@H](c3cnc(C4CCOCC4)o3)N1)OCCc1cc(Cl)sc12 (racemic) [Compound 140],IC90,50 to 500 nM
same,Multi-Tox Assay Max Activity (%),99.7%
C[C@H]1C[C@@]2(C[C@@H](c3cccc4[nH]c(=O)oc34)N1)OCCc1cc(Cl)sc12 (racemic) [Compound 141],IC90,50 to 500 nM
same,Multi-Tox Assay Max Activity (%),96.3%
Cc1nn(C)cc1[C@@H]1C[C@]2(C[C@H](C)N1)OCCc1cc(Cl)sc12 (racemic) [Compound 142],IC90,50 to 500 nM
Cc1nc([C@@H]2C[C@]3(C[C@H](C)N2)OCCc2cc(Cl)sc23)oc1C (racemic) [Compound 144],IC90,> 500 nM
same,Multi-Tox Assay Max Activity (%),98.0%
COc1ccnc([C@@H]2C[C@]3(C[C@H](C)N2)OCCc2cc(Cl)sc23)n1 (racemic) [Compound 145],IC90,> 500 nM
same,Multi-Tox Assay Max Activity (%),97.7%
C[C@H]1C[C@@]2(C[C@@H](c3cccc(S(C)(=O)=O)c3)N1)OCCc1cc(Cl)sc12 (racemic) [Compound 146],IC90,50 to 500 nM
same,Multi-Tox Assay Max Activity (%),97.0%
C[C@H]1C[C@@]2(C[C@@H](c3cccc(S(N)(=O)=O)c3)N1)OCCc1cc(Cl)sc12 (racemic) [Compound 147],IC90,> 500 nM
same,Multi-Tox Assay Max Activity (%),92.3%
C[C@H]1C[C@@]2(C[C@@H](c3cccc(-c4cn[nH]c4)c3)N1)OCCc1cc(Cl)sc12 (racemic) [Compound 148],IC90,50 to 500 nM
same,Multi-Tox Assay Max Activity (%),97.0%
C[C@H]1C[C@@]2(C[C@@H](c3cnc4n3CCOC4)N1)OCCc1cc(Cl)sc12 (racemic) [Compound 149],IC90,> 500 nM
same,Multi-Tox Assay Max Activity (%),95.7%
Cc1nc([C@@H]2C[C@]3(C[C@H](C)N2)OCCc2cc(Cl)sc23)[nH]c1C (racemic) [Compound 150],IC90,> 500 nM
same,Multi-Tox Assay Max Activity (%),96.3%
C[C@H]1C[C@@]2(C[C@@H](c3cccc(=O)[nH]3)N1)OCCc1cc(Cl)sc12 (racemic) [Compound 151],IC90,> 500 nM
same,Multi-Tox Assay Max Activity (%),96.2%
C[C@H]1C[C@@]2(C[C@@H](c3ccnn3C)N1)OCCc1cc(Cl)sc12 (racemic) [Compound 152],IC90,> 500 nM
same,Multi-Tox Assay Max Activity (%),98.0%
CCc1c[nH]c([C@@H]2C[C@]3(C[C@H](C)N2)OCCc2cc(Cl)sc23)n1 (racemic) [Compound 153],IC90,> 500 nM
same,Multi-Tox Assay Max Activity (%),96.0%
COc1nn(C)cc1[C@@H]1C[C@]2(C[C@H](C)N1)OCCc1cc(Cl)sc12 (racemic) [Compound 154],IC90,> 500 nM
same,Multi-Tox Assay Max Activity (%),94.0%
Cc1coc([C@@H]2C[C@]3(C[C@H](C)N2)OCCc2cc(Cl)sc23)n1 (racemic) [Compound 155],IC90,> 500 nM
same,Multi-Tox Assay Max Activity (%),95.2%
Cc1nc([C@@H]2C[C@]3(C[C@H](C)N2)OCCc2cc(Cl)sc23)c[nH]1 (racemic) [Compound 156],IC90,> 500 nM
same,Multi-Tox Assay Max Activity (%),93.0%
Cc1ncoc1[C@@H]1C[C@]2(C[C@H](C)N1)OCCc1cc(Cl)sc12 (racemic) [Compound 157],IC90,> 500 nM
same,Multi-Tox Assay Max Activity (%),96.3%
